Values quoted from earlier work as cited in patent US11278709B1, “Drug delivery device and methods for using same” (Pocket Naloxone Corp., priority 2021, dated 2022).

Conditions: 4 mg dose via a nasal spray

Q: For `C=CCN1CC[C@]23c4c5ccc(O)c4O[C@H]2C(=O)CC[C@@]3(O)[C@H]1C5` [naloxone], which AUClast is on record?
A: Its AUClast is 7.95 ng·h/mL.

Q: What about the Cmax of the same molecule?
A: The Cmax was 4.83 ng/mL.
